According to patent US5334595A, “Pyrazoloquinolones as anticancer agents” (priority 1992, dated 1994):
Like-named read-outs stand apart in the source and are kept apart here.

Legend:
[1] = system: P388 murine leukemia cells; assay: In vitro cytotoxicity, one-hour exposure, clonogenic survival of P388 cells; type: cell-based; details: Mus musculus, read-out: in vitro cytotoxicity IC50, 1 hr exp.; P388, 1 hr exposure
Protocol: (§1) In vitro cytotoxicity was assayed by determining cell survival following exposure of P388 murine leukemia cells to a range of test compound concentrations. Cytotoxicity was quantitated following either a one-hour exposure or continuous exposure of P388 cells to test compound.
(§2) A Manual of Basic Technique. […] Briefly, following drug exposure cells were plated in soft agar and incubated (37°, 5% CO2) for 7-10 days during which time viable cells form visible colonies. Cytotoxicity following continuous exposure of cells to test compound was assayed by quantitating total P388 cells on a Coultier Counter following a 48-hour co-incubation of test compound with cells. P388 cells were maintained in log phase throughout the duration of cytotoxicity assays.
(§3) The percentage of cells surviving relative to an untreated control was graphed as a function of increasing drug concentration.

human topoisomerase II = target: T1, human topoisomerase II (Homo sapiens, UniProt P11388); assay: Mammalian topoisomerase II inhibition assay (topo II covalently attached to DNA, relative to mAMSA); type: biochemical; details: read-out: topo II inh. EC50
T1 construct: Topo II was purified from late log phase suspension cultures of HeLa WIS; endogenous in cells; host or cells: HeLa WIS
T1 sequence (P11388 whole entry): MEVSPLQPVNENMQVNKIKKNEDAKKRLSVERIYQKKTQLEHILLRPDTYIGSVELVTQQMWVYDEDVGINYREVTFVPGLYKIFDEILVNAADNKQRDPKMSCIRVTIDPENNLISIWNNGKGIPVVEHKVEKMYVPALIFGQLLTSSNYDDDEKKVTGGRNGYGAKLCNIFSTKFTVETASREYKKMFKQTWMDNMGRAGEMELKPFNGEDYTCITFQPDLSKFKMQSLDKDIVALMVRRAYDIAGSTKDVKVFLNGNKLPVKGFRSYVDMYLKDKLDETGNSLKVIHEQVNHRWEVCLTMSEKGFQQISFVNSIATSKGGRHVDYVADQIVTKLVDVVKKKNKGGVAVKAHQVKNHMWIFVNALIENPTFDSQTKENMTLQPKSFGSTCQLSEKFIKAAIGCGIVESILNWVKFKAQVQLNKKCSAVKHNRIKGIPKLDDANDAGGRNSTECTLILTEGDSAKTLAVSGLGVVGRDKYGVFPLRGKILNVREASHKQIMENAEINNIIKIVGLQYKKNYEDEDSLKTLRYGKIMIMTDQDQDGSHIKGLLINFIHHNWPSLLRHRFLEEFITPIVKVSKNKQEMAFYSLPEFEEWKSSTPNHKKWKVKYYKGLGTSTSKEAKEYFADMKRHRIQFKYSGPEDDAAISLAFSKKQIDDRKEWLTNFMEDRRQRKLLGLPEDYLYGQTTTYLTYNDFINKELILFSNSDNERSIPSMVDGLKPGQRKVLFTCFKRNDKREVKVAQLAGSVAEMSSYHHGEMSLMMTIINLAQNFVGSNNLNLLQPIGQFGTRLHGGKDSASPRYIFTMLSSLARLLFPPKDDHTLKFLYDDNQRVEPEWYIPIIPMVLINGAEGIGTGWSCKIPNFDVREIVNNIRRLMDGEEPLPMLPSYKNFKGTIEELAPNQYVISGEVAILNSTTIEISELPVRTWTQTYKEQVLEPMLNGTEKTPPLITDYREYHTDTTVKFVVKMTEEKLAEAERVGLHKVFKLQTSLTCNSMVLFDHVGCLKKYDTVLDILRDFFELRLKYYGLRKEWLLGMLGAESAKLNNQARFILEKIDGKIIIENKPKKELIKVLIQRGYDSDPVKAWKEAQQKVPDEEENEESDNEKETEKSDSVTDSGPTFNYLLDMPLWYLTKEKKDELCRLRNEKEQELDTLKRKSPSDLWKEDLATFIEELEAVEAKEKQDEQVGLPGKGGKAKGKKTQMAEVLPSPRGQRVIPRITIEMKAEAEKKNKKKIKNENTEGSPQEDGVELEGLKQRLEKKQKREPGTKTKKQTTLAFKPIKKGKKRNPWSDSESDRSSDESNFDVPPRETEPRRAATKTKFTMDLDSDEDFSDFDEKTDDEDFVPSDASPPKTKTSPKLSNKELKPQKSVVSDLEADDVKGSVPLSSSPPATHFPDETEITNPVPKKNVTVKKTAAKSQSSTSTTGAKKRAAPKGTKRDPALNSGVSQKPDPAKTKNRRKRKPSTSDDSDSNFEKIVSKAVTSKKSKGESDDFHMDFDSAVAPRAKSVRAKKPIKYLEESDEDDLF
Source text: The inhibition of human topoisomerase II (hereafter topo II) was quantitated by a procedure adapted from that described by Trask et al., EMBO J., 3, 671-676 (1984). The assay quantitates the amount of topo II covalently attached to DNA at equilibrium during a topo II reaction. This assay determines the potential of a compound to stabilize this complex, which potential is closely related to the cytotoxicity of the compound.
Topo II was purified from late log phase suspension cultures of HeLa WIS by an adaptation of the method described by Per et al., Mol. Pharmacol., 32, 17-25 (1987).
Assays (in duplicate) were assembled at 4° C. Assay mix (25 μl) was distributed in Beckman (No. 265270) 1.5 mL microtiter tubes followed by the addition of 5 μl test compound to yield the final concentrations of assay components:
The assay mix including the test compound was incubated for 20 minutes at 37° C. The reaction was terminated at 37° C. by the addition of 3 μl 10% SDS followed by the addition of 266 μl 10 mM Tris-Cl pH 7.5, 20 μg/ml BSA, 20 μg/ml calf thymus DNA, 1% SDS.
A SDS/protein precipitate was formed by the addition of 28 μl 2.5M KCl followed by chilling on ice for a minimum of 10 minutes. The precipitate was collected and washed with a Brandell cell harvester on a GFB glass fiber filter membrane as follows. The contents of the assay tube were drawn up into the harvester. The tube was then rinsed 7× with 10 mM Tris-Cl pH 7.5, 1 mM EDTA and 100 mM KCl. The precipitate was washed with 1 L of a solution of 10 mM Tris-Cl pH 7.5, 1 mMEDTA, 100 mM KCl followed by 1 L of 95% ethyl alcohol and finally 0.5 L 70% of ethyl alcohol (per 48 samples in each case). After drying, CPM was determined by liquid scintillation counting with 5 ml Biofluor (NEN Research Products) or Readisafe (Beckman Instruments Inc.) cocktail.
Preparation of test compound--A stock solution (6 mg/ml) of test compound was prepared either in 0.1N sodium hydroxide or 0.2N hydrogen chloride. This solution then was diluted 1/5 into water and serially thereafter in either 0.02N sodium hydroxide or 0.04N hydrogen chloride, respectively. The stock solution and serial dilution of the test compound was stored at -20° C. prior to testing.
Screening of test compound--As an initial screen, the test compound was tested at a final concentration of 2, 20 and 200 μg/ml. The compound was then retested at a range of concentrations (usually 2-3×steps) bridging their approximate EC50 's, as estimated by the prescreen.
Controls--A solvent control which indicates the base level of topo II-DNA complex formed in the absence of the test compound was included in each test. A control, in which topo II was omitted, was included for each test compound at the highest drug concentration tested.
Reference Agent--A dose response curve with mAMSA at 0.01, 0.08, 0.16, 0.32, 1.0 and 10 μg/ml was included in each test.
The maximal DNA-topo II complex formed is taken as that equal to that formed at the nearly saturating dose of mAMSA (10 μg/ml).

[2] = system: P388 murine leukemia cells; assay: In vitro cytotoxicity, continuous (48-hour) exposure of P388 cells; type: cell-based; details: Mus musculus; P388, continuous exposure (48-hour); read-out: in vitro cytotoxicity IC50, cont. exp.
Protocol: as §1, §2, §3

[3] = conc. achieving 50% of maximal effect of mAMSA, topo II from HeLa cells
[4] = footnote c: bell-shaped dose response curve noted, 50% of maximal effect of mAMSA

SMILES | EC50 (human topoisomerase II; [3]) [µM] | EC50 (human topoisomerase II) [µM] | EC50 (human topoisomerase II; [4]) [µM] | IC50 [1] [nM] | IC50 [2] [nM]
Cc1cc(-c2c(F)cc3c4nn(CC(F)(F)F)c(=O)c-4cn(C4CC4)c3c2F)cc(C)n1 [Example 2] | 6.8 |  |  |  | 1400
CCCCn1nc2c3cc(F)c(-c4cc(C)nc(C)c4)c(F)c3n(C3CC3)cc-2c1=O [Example 4, 2-(1-Butyl)-5-cyclopropyl-6,8-difluoro-2,5-dihydro-7-(2,6-dimethyl-4-pyridinyl) -3H-pyrazolo[4,3-c]quinolin-3-one] | 2.9 |  |  |  | 1500
Cc1cc(-c2c(F)cc3c4nn(-c5ccccc5O)c(=O)c-4cn(C4CC4)c3c2F)cc(C)n1 [Example 5, 5-Cyclopropyl-6,8-difluoro-2,5-dihydro-2-(2-hydroxyphenyl)-7-(2,6-dimethyl-4-pyridinyl) -3H-pyrazolo[4,3-c]quinolin-3-one] | 1.2 |  |  |  | 150
Cc1cc(-c2c(F)cc3c4nn(C)c(=O)c-4cn(C4CC4)c3c2F)cc(C)n1 [Example 7] | 5.9 |  |  |  | 510
Cc1cc(-c2c(F)cc3c4nn(C(C)(C)C)c(=O)c-4cn(C4CC4)c3c2F)cc(C)n1 [Example 8] | 6.9 |  |  |  | 3500
CCOC(=O)Cn1nc2c3cc(F)c(-c4cc(C)nc(C)c4)c(F)c3n(C3CC3)cc-2c1=O [Example 9] | 6.1 |  |  |  | 150
Cc1cc(-c2c(F)cc3c4nn(CCCCO)c(=O)c-4cn(C4CC4)c3c2F)cc(C)n1 [Example 11] | 4.2 |  |  |  | 880
CCN(CC)CCn1nc2c3cc(F)c(-c4cc(C)nc(C)c4)c(F)c3n(C3CC3)cc-2c1=O [Example 15] |  | 93 |  | 450 | 
Cc1cc(-c2c(F)cc3c4nn(-c5c(F)c(F)c(F)c(F)c5F)c(=O)c-4cn(C4CC4)c3c2F)cc(C)n1 [Example 25] | 3.4 |  |  |  | 2200
Cc1cc(-c2c(F)cc3c4nn(-c5cccc6ccccc56)c(=O)c-4cn(C4CC4)c3c2F)cc(C)n1 [Example 28] | 2.9 |  |  |  | 320
Cc1cc(-c2c(F)cc3c4nn(-c5ccccn5)c(=O)c-4cn(C4CC4)c3c2F)cc(C)n1 [Example 29] | 2.8 |  |  |  | 740
COc1ccc(Cn2nc3c4cc(F)c(-c5cc(C)nc(C)c5)c(F)c4n(C4CC4)cc-3c2=O)cc1 [Example 34] | 3.2 |  |  |  | 440
COc1ccccc1CCn1nc2c3cc(F)c(-c4cc(C)nc(C)c4)c(F)c3n(C3CC3)cc-2c1=O [Example 38] | 11 |  |  |  | 
Cc1cc(-c2c(F)cc3c4nn(CCc5ccccc5O)c(=O)c-4cn(C4CC4)c3c2F)cc(C)n1 [Example 39] |  |  | 9.6 |  | 
Cc1cc(-c2c(F)cc3c4nn(C5CCc6ccccc6C5)c(=O)c-4cn(C4CC4)c3c2F)cc(C)n1 (centres unmarked) [Example 44] | 3.7 |  |  |  | 1500
Cc1cc(-c2c(F)cc3c4nn(C5CCC(c6ccccc6)CC5)c(=O)c-4cn(C4CC4)c3c2F)cc(C)n1 (centres unmarked) [Example 48] | 4.5 |  |  | 8400 | 
CC(=O)N[C@H]1CC[C@@H](n2nc3c4cc(F)c(-c5cc(C)nc(C)c5)c(F)c4n(C4CC4)cc-3c2=O)CC1 [Example 52a] | 7.4 |  |  | 1300 | 
Cc1cc(-c2c(F)cc3c4nn(CC(=O)O)c(=O)c-4cn(C4CC4)c3c2F)cc(C)n1 [Example 53, 2-[5-Cyclopropyl-6,8-difluoro-2,5-dihydro-7-(2,6-dimethyl-4-pyridinyl)-3-oxo-3H-pyrazolo[4,3-c]quinolinyl]acetic acid] | 10 |  |  |  | 18000
Cc1cc(-c2c(F)cc3c4nn([C@H]5CC[C@@H](NC=O)CC5)c(=O)c-4cn(C4CC4)c3c2F)cc(C)n1 [Example 57, 2-(cis-4-formamidocyclohexyl)-5-cyclopropyl-6,8-difluoro-2,5-dihydro-7-(2,6-dimethyl-4-pyridinyl)-3H-pyrazolo[4,3-c]quinolin-3-one] | 0.8 |  |  | 5100 | 

Second part, led by results:

EC50 (human topoisomerase II; [3]) [µM] | EC50 (human topoisomerase II) [µM] | EC50 (human topoisomerase II; [4]) [µM] | SMILES | IC50 [1] [nM] | IC50 [2] [nM]
6.3 |  |  | CO[C@@H]1CCCC[C@@H]1n1nc2c3cc(F)c(-c4cc(C)nc(C)c4)c(F)c3n(C3CC3)cc-2c1=O (relative stereo) [Example 45] | 570 | 
5 |  |  | Cc1cc(-c2c(F)cc3c4nn(C(C)C)c(=O)c-4cn(C4CC4)c3c2F)cc(C)n1 [Example 3, 5-Cyclopropyl-6,8-difluoro-7-(2,6-dimethyl-4-pyridinyl)-2,5-dihydro-2-(2-propyl) -3H-pyrazolo[4,3-c]quinolin-3-one] |  | 530
6.4 |  |  | Cc1cc(-c2c(F)cc3c4nn(CCO)c(=O)c-4cn(C4CC4)c3c2F)cc(C)n1 [Example 10] |  | 1400
23 |  |  | COC(Cn1nc2c3cc(F)c(-c4cc(C)nc(C)c4)c(F)c3n(C3CC3)cc-2c1=O)OC [Example 12] |  | 
6.7 |  |  | Cc1cc(-c2c(F)cc3c4nn(CCC#N)c(=O)c-4cn(C4CC4)c3c2F)cc(C)n1 [Example 13] |  | 1400
 | 210 |  | Cc1cc(-c2c(F)cc3c4nn(CCN5CCCCC5)c(=O)c-4cn(C4CC4)c3c2F)cc(C)n1 [Example 19] | 440 | 
8.9 |  |  | Cc1ccc(-n2nc3c4cc(F)c(-c5cc(C)nc(C)c5)c(F)c4n(C4CC4)cc-3c2=O)cc1 [Example 24] |  | 4900
5 |  |  | COc1ccccc1-n1nc2c3cc(F)c(-c4cc(C)nc(C)c4)c(F)c3n(C3CC3)cc-2c1=O [Example 26] |  | 340
4.9 |  |  | Cc1cc(-c2c(F)cc3c4nn(-c5ccc(O)cc5)c(=O)c-4cn(C4CC4)c3c2F)cc(C)n1 [Example 27] |  | 2600
 |  | 8 | Cc1cc(-c2c(F)cc3c4nn(-c5ccncc5)c(=O)c-4cn(C4CC4)c3c2F)cc(C)n1 [Example 30] |  | 1200
3.7 |  |  | Cc1cc(-c2c(F)cc3c4nn(Cc5ccccc5)c(=O)c-4cn(C4CC4)c3c2F)cc(C)n1 [Example 31] |  | 140
5.1 |  |  | COc1ccccc1Cn1nc2c3cc(F)c(-c4cc(C)nc(C)c4)c(F)c3n(C3CC3)cc-2c1=O [Example 32] |  | 1200
3.8 |  |  | Cc1cc(-c2c(F)cc3c4nn(Cc5ccccc5O)c(=O)c-4cn(C4CC4)c3c2F)cc(C)n1 [Example 33] |  | 1400
1.5 |  |  | Cc1cc(-c2c(F)cc3c4nn(Cc5ccc(O)cc5)c(=O)c-4cn(C4CC4)c3c2F)cc(C)n1 [Example 35] |  | 250
6.4 |  |  | COc1cc(Cn2nc3c4cc(F)c(-c5cc(C)nc(C)c5)c(F)c4n(C4CC4)cc-3c2=O)cc(OC)c1OC [Example 36] |  | 1200
5 |  |  | Cc1cc(-c2c(F)cc3c4nn(CCc5ccccc5)c(=O)c-4cn(C4CC4)c3c2F)cc(C)n1 [Example 37] |  | 2200
3.1 |  |  | Cc1cc(-c2c(F)cc3c4nn(C5CCC(C)CC5)c(=O)c-4cn(C4CC4)c3c2F)cc(C)n1 (centres unmarked) [Example 47] | 1400 | 
9.8 |  |  | CC(=O)N[C@H]1CC[C@H](n2nc3c4cc(F)c(-c5cc(C)nc(C)c5)c(F)c4n(C4CC4)cc-3c2=O)CC1 [Example 52b] | 1200 | 
